The NIST ThermoML archive (doi:10.1007/s10765-012-1352-4)

Test: xn = mol fraction of the nth substance listed
Conditions: Gas, Loschmidt diffusion cell combined with holoholographic interferometry

[Ne] [neon] + [Ar]
binary diffusion coefficient [m2/s]
Conditions	100 kPa	500 kPa	1000 kPa
313.15 K, x2 = 0.1	–	7.02e-11	3.5e-11
313.15 K, x2 = 0.12	–	7e-11	3.49e-11
313.15 K, x2 = 0.14	–	6.99e-11	3.49e-11
313.15 K, x2 = 0.16	–	6.98e-11	3.48e-11
313.15 K, x2 = 0.18	–	6.97e-11	3.47e-11
313.15 K, x2 = 0.2	–	6.96e-11	3.47e-11
313.15 K, x2 = 0.22	–	6.95e-11	3.46e-11
313.15 K, x2 = 0.24	–	6.94e-11	3.45e-11
313.15 K, x2 = 0.26	–	6.92e-11	3.44e-11
313.15 K, x2 = 0.28	–	6.91e-11	3.44e-11
313.15 K, x2 = 0.3	–	6.89e-11	3.42e-11
313.15 K, x2 = 0.32	–	6.88e-11	3.41e-11
313.15 K, x2 = 0.34	–	6.86e-11	3.4e-11
313.15 K, x2 = 0.36	–	6.84e-11	3.39e-11
313.15 K, x2 = 0.38	–	6.82e-11	3.37e-11
313.15 K, x2 = 0.4	–	6.79e-11	3.35e-11
313.15 K, x2 = 0.6	–	7.09e-11	3.52e-11
313.15 K, x2 = 0.62	–	7.08e-11	3.51e-11
313.15 K, x2 = 0.64	–	7.07e-11	3.5e-11
313.15 K, x2 = 0.66	–	7.06e-11	3.5e-11
313.15 K, x2 = 0.68	–	7.06e-11	3.5e-11
313.15 K, x2 = 0.7	–	7.05e-11	3.5e-11
313.15 K, x2 = 0.72	–	7.05e-11	3.5e-11
313.15 K, x2 = 0.74	–	7.05e-11	3.5e-11
313.15 K, x2 = 0.76	–	7.06e-11	3.5e-11
313.15 K, x2 = 0.78	–	7.06e-11	3.5e-11
313.15 K, x2 = 0.8	–	7.06e-11	3.5e-11
313.15 K, x2 = 0.82	–	7.06e-11	3.5e-11
313.15 K, x2 = 0.84	–	7.07e-11	3.5e-11
313.15 K, x2 = 0.86	–	7.07e-11	3.5e-11
313.15 K, x2 = 0.88	–	7.07e-11	3.51e-11
313.15 K, x2 = 0.9	–	7.08e-11	3.51e-11
333.15 K, x2 = 0.1	3.99e-10	–	–
333.15 K, x2 = 0.12	3.97e-10	–	–
333.15 K, x2 = 0.14	3.95e-10	–	–
333.15 K, x2 = 0.16	3.94e-10	–	–
333.15 K, x2 = 0.18	3.93e-10	–	–
333.15 K, x2 = 0.2	3.91e-10	–	–
333.15 K, x2 = 0.22	3.91e-10	–	–
333.15 K, x2 = 0.24	3.89e-10	–	–
333.15 K, x2 = 0.26	3.89e-10	–	–
333.15 K, x2 = 0.28	3.87e-10	–	–
333.15 K, x2 = 0.3	3.86e-10	–	–
333.15 K, x2 = 0.32	3.86e-10	–	–
333.15 K, x2 = 0.34	3.84e-10	–	–
333.15 K, x2 = 0.36	3.83e-10	–	–
333.15 K, x2 = 0.38	3.83e-10	–	–
333.15 K, x2 = 0.4	3.8e-10	–	–
333.15 K, x2 = 0.6	3.87e-10	–	–
333.15 K, x2 = 0.62	3.85e-10	–	–
333.15 K, x2 = 0.64	3.84e-10	–	–
333.15 K, x2 = 0.66	3.85e-10	–	–
333.15 K, x2 = 0.68	3.85e-10	–	–
333.15 K, x2 = 0.7	3.85e-10	–	–
333.15 K, x2 = 0.72	3.86e-10	–	–
333.15 K, x2 = 0.74	3.85e-10	–	–
333.15 K, x2 = 0.76	3.86e-10	–	–
333.15 K, x2 = 0.78	3.86e-10	–	–
333.15 K, x2 = 0.8	3.86e-10	–	–
333.15 K, x2 = 0.82	3.86e-10	–	–
333.15 K, x2 = 0.84	3.86e-10	–	–
333.15 K, x2 = 0.86	3.86e-10	–	–
333.15 K, x2 = 0.88	3.86e-10	–	–
333.15 K, x2 = 0.9	3.86e-10	–	–
